# Patent US10517889B2, “Modulators of SMAD7 expression” (Ionis Pharmaceuticals, Inc., priority 2017, dated 2019)
# Strand notation (5' to 3'): a small letter for the sugar, then the base; units joined by * are phosphorothioate-linked, units joined directly phosphodiester-linked; [ ] holds rarer units or linkages, { } end groups; capitals alone tell only the bases. e = 2'-O-(2-methoxyethyl) (MOE); [5mC] = 5-methylcytosine; d = 2'-deoxy (DNA)
# System: human SMAD7 mRNA
# Assay: Antisense inhibition of human SMAD7 mRNA expression in Hep3B cells by 5-10-5 MOE gapmers, single concentration, electroporation, RT-PCR (Example 1, Study 1 and 2)
# Assay type: cell-based
# Settings: for % Inhibition: Study 2, electroporation with 15,000 nM antisense oligonucleotide; for % Inhibition of SMAD7 mRNA: electroporation with 15,000 nM antisense oligonucleotide (Study 2)
# In short: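 Readout is percent SMAD7 mRNA inhibition versus untreated cells, measured by qRT-PCR (RTS5062) and corrected for total RNA by RIBOGREEN. Oligonucleotide, 5,000 nM or 15,000 nM, was delivered by electroporation into Hep3B cells at 20,000 per well. RNA was collected about 24 h later.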
# [1] = 5-10-5 MOE gapmers targeting SEQ ID NO: 1 and 2
# [2] = electroporation, 5,000 nM, approximately 24 hours, relative to untreated control cells, gapmers targeting SEQ ID NO: 1 and 2
# [3] = electroporation, 15,000 nM, approximately 24 hours, relative to untreated control cells, gapmers targeting SEQ ID NO: 1 and 2
# [4] = electroporation, 15,000 nM antisense oligonucleotide (Study 2), 5-10-5 MOE gapmers targeting SEQ ID NO: 1 and 2
substance,measurement,setting,value
771774 (antisense eG*eA*eA*eA*eA*dA*d[5mC]*dA*dG*dG*dT*dA*dG*dA*dA*eA*eT*eA*eG*eG) [compound 771774],% Inhibition,[1],14%
771775 (antisense eA*eA*eT*eG*e[5mC]*d[5mC]*dA*dA*dA*dT*dG*d[5mC]*d[5mC]*d[5mC]*dA*eA*eA*eA*e[5mC]*eT) [compound 771775],% Inhibition,[1],41%
771779 (antisense eA*e[5mC]*eA*e[5mC]*eA*d[5mC]*dT*dG*d[5mC]*dT*dG*d[5mC]*d[5mC]*dT*dT*eT*eT*e[5mC]*eT*e[5mC]) [compound 771779],% Inhibition,[1],33%
same,% inhibition of SMAD7 mRNA expression,[2],53%
771780 (antisense eA*e[5mC]*eA*eA*eA*d[5mC]*d[5mC]*dT*dT*d[5mC]*d[5mC]*dG*dA*dA*dA*eG*eG*eA*e[5mC]*e[5mC]) [compound 771780],% Inhibition,[1],20%
771781 (antisense eA*eA*eA*eA*eA*dA*dA*dG*d[5mC]*d[5mC]*d[5mC]*dA*d[5mC]*d[5mC]*d[5mC]*eA*eT*e[5mC]*eG*eG) [compound 771781],% inhibition of SMAD7 mRNA expression,[3],10%
771783 (antisense e[5mC]*e[5mC]*e[5mC]*eT*eT*d[5mC]*dA*dG*dA*dG*dA*dG*dT*d[5mC]*dA*e[5mC]*eT*eG*e[5mC]*eT) [compound 771783],% Inhibition,[1],49%
771784 (antisense eT*eA*eA*eA*eT*d[5mC]*dA*dA*dG*dA*dG*d[5mC]*dT*dG*dA*eA*eA*eT*eT*e[5mC]) [compound 771784],% Inhibition of SMAD7 mRNA,[1],1%
same,% inhibition of SMAD7 mRNA expression,[4],0%
771785 (antisense eA*e[5mC]*eT*eT*eT*dG*dA*dA*dG*d[5mC]*d[5mC]*dT*dT*dT*dG*eG*eA*eA*eT*eT) [compound 771785],% inhibition of SMAD7 mRNA expression,[4],12%
771787 (antisense eA*eA*eG*eA*eA*dG*dA*dA*dG*dG*dA*dG*d[5mC]*dT*d[5mC]*eA*eA*eA*e[5mC]*eT) [compound 771787],% Inhibition,[1],27%
same,% inhibition of SMAD7 mRNA expression,[2],0%
771789 (antisense e[5mC]*e[5mC]*e[5mC]*eA*eA*dA*dA*d[5mC]*dA*dG*dT*dG*dT*dA*d[5mC]*e[5mC]*e[5mC]*eT*e[5mC]*e[5mC]) [compound 771789],% inhibition of SMAD7 mRNA expression,[3],30%
771790 (antisense e[5mC]*eA*eA*eA*eA*d[5mC]*dT*d[5mC]*dT*d[5mC]*dT*dG*d[5mC]*d[5mC]*d[5mC]*eT*eG*eG*eA*e[5mC]) [compound 771790],% Inhibition,[1],36%
771791 (antisense eG*eA*eG*eG*eA*dG*dG*dG*dA*dG*dA*dA*dA*d[5mC]*dT*e[5mC]*e[5mC]*eT*e[5mC]*eA) [compound 771791],% Inhibition,[1],22%
771792 (antisense eA*eG*e[5mC]*eA*e[5mC]*dA*d[5mC]*d[5mC]*d[5mC]*d[5mC]*dA*d[5mC]*d[5mC]*d[5mC]*d[5mC]*e[5mC]*eA*e[5mC]*e[5mC]*eT) [compound 771792],% Inhibition of SMAD7 mRNA,[1],33%
same,% inhibition of SMAD7 mRNA expression,[4],2%
771796 (antisense eG*eT*eT*eT*eG*d[5mC]*dG*d[5mC]*dA*d[5mC]*dG*dG*dG*dA*dT*eT*eG*eT*e[5mC]*eT) [compound 771796],% Inhibition,[1],16%
771798 (antisense eG*eA*e[5mC]*eA*e[5mC]*dA*dT*d[5mC]*d[5mC]*dA*dT*dG*dT*d[5mC]*d[5mC]*eA*eA*eG*e[5mC]*eA) [compound 771798],% Inhibition,[1],17%
771800 (antisense eG*eA*e[5mC]*eA*eG*d[5mC]*dA*dG*dA*d[5mC]*dA*dG*dG*d[5mC]*dA*eA*eA*eA*eT*eG) [compound 771800],% Inhibition of SMAD7 mRNA,[1],32%
same,% inhibition of SMAD7 mRNA expression,[4],12%
771801 (antisense eA*e[5mC]*e[5mC]*eT*eA*d[5mC]*dA*dA*d[5mC]*dT*d[5mC]*dA*d[5mC]*dA*dA*eG*eG*eG*eA*eG) [compound 771801],% inhibition of SMAD7 mRNA expression,[4],31%
